# Experimental data as given in patent US4471131A, “Novel silyl esters of N-phosphonomethylglycine” (Monsanto Company, priority 1983, dated 1984).
# Assays:
# Test in all cases: post-emergence herbicidal activity, greenhouse
# Format in all cases: in vivo
# Downy Brome = tested on: Downy Brome
# In short: (§1)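 Plants grown from seed or vegetative propagules in topsoil pans on a greenhouse sand bench, watered from below, were atomizer-sprayed at two to three weeks of age. The spray carried about 0.4% by weight emulsifier. Injury relative to unsprayed control pans was scored approximately two and four weeks after treatment.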
# Quackgrass = settings: Table II
# In short: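 After sowing in soil-filled pans and growing under greenhouse conditions, plants at two to three weeks were sprayed post-emergence with the test compound in a formulation containing approximately 0.4% emulsifier by weight. Observations of plant injury, relative to controls, followed at about two and four weeks.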
# Rice = settings: Table III
# In short: as §1
# Canada Thistle = settings: Table II, formulated in anhydrous tetrahydrofuran
# In short: as §1
# Morningglory = tested on: Morningglory
# In short: as §1
# Johnsongrass = settings: Table II
# In short: as §1
# [1] = Table II, 4 WAT, 5.6 kg/h, formulated in anhydrous tetrahydrofuran
# [2] = Table II, 4 WAT, 11.2 kg/h, formulated in anhydrous tetrahydrofuran
# [3] = Table III, 2 WAT, 1.1 kg/h, formulated in anhydrous tetrahydrofuran
# [4] = Table III, 2 WAT, 5.6 kg/h, formulated in anhydrous tetrahydrofuran
# [5] = Table III, 2 WAT, .28 kg/h, formulated in anhydrous tetrahydrofuran
# [6] = Table III, 4 WAT, 1.1 kg/h, formulated in anhydrous tetrahydrofuran
# [7] = Table III, 4 WAT, 5.6 kg/h, formulated in anhydrous tetrahydrofuran
# [8] = Table III, 4 WAT, .28 kg/h, formulated in anhydrous tetrahydrofuran
# [9] = 2 WAT, 5.6 kg/h, formulated in anhydrous tetrahydrofuran
# [10] = 2 WAT, 11.2 kg/h, formulated in anhydrous tetrahydrofuran
# [11] = 4 WAT, 5.6 kg/h, formulated in anhydrous tetrahydrofuran
# [12] = 4 WAT, 11.2 kg/h, formulated in anhydrous tetrahydrofuran
compound,measurement,setting,value
"CCOC(=O)CNCP(=O)(O)O[Si](c1ccccc1)(c1ccccc1)C(C)(C)C [Ex. 7, Glycine, N--((([(1,1-Dimethylethyl)Diphenylsilyl]Oxy)Hydroxyphosphinyl)Methyl)-,Ethyl Ester]",Plant Response Index (J),"Downy Brome; Table II, 4 WAT, 5.6 kg/h",3 (75-99% inhibition)
same,Plant Response Index (J),Downy Brome; [1],1 (25-49% inhibition)
same,Plant Response Index (J),"Downy Brome; Table II, 4 WAT, 11.2 kg/h",3 (75-99% inhibition)
same,Plant Response Index (J),Downy Brome; [2],1 (25-49% inhibition)
same,Plant Response Index (J),"Downy Brome; Table III, 2 WAT, 1.1 kg/h",2 (50-74% inhibition)
same,Plant Response Index (J),Downy Brome; [3],1 (25-49% inhibition)
same,Plant Response Index (J),"Downy Brome; Table III, 2 WAT, 5.6 kg/h",2 (50-74% inhibition)
same,Plant Response Index (J),Downy Brome; [4],2 (50-74% inhibition)
same,Plant Response Index (J),"Downy Brome; Table III, 2 WAT, .28 kg/h",1 (25-49% inhibition)
same,Plant Response Index (J),Downy Brome; [5],0 (0-24% inhibition)
same,Plant Response Index (J),"Downy Brome; Table III, 4 WAT, 1.1 kg/h",2 (50-74% inhibition)
same,Plant Response Index (J),Downy Brome; [6],1 (25-49% inhibition)
same,Plant Response Index (J),"Downy Brome; Table III, 4 WAT, 5.6 kg/h",2 (50-74% inhibition)
same,Plant Response Index (J),Downy Brome; [7],3 (75-99% inhibition)
same,Plant Response Index (J),"Downy Brome; Table III, 4 WAT, .28 kg/h",0 (0-24% inhibition)
same,Plant Response Index (J),Downy Brome; [8],0 (0-24% inhibition)
same,Plant Response Index (H),"Quackgrass; 2 WAT, 5.6 kg/h",1 (25-49% inhibition)
same,Plant Response Index (H),Quackgrass; [9],1 (25-49% inhibition)
same,Plant Response Index (H),"Quackgrass; 2 WAT, 11.2 kg/h",2 (50-74% inhibition)
same,Plant Response Index (H),Quackgrass; [10],1 (25-49% inhibition)
same,Plant Response Index (H),"Quackgrass; 4 WAT, 5.6 kg/h",4 (100% inhibition)
same,Plant Response Index (H),Quackgrass; [11],2 (50-74% inhibition)
same,Plant Response Index (H),"Quackgrass; 4 WAT, 11.2 kg/h",3 (75-99% inhibition)
same,Plant Response Index (H),Quackgrass; [12],2 (50-74% inhibition)
same,Plant Response Index (O),"Rice; 2 WAT, 1.1 kg/h",2 (50-74% inhibition)
same,Plant Response Index (O),"Rice; 2 WAT, 1.1 kg/h, formulated in anhydrous tetrahydrofuran",1 (25-49% inhibition)
same,Plant Response Index (O),"Rice; 2 WAT, 5.6 kg/h",2 (50-74% inhibition)
same,Plant Response Index (O),Rice; [9],3 (75-99% inhibition)
same,Plant Response Index (O),"Rice; 2 WAT, .28 kg/h",2 (50-74% inhibition)
same,Plant Response Index (O),"Rice; 2 WAT, .28 kg/h, formulated in anhydrous tetrahydrofuran",1 (25-49% inhibition)
same,Plant Response Index (O),"Rice; 4 WAT, 1.1 kg/h",3 (75-99% inhibition)
same,Plant Response Index (O),"Rice; 4 WAT, 1.1 kg/h, formulated in anhydrous tetrahydrofuran",1 (25-49% inhibition)
same,Plant Response Index (O),"Rice; 4 WAT, 5.6 kg/h",3 (75-99% inhibition)
same,Plant Response Index (O),Rice; [11],3 (75-99% inhibition)
same,Plant Response Index (O),"Rice; 4 WAT, .28 kg/h",1 (25-49% inhibition)
same,Plant Response Index (O),"Rice; 4 WAT, .28 kg/h, formulated in anhydrous tetrahydrofuran",0 (0-24% inhibition)
same,Plant Response Index (A),"Canada Thistle; 2 WAT, 5.6 kg/h",1 (25-49% inhibition)
same,Plant Response Index (A),"Canada Thistle; 2 WAT, 11.2 kg/h",1 (25-49% inhibition)
same,Plant Response Index (A),"Canada Thistle; 4 WAT, 5.6 kg/h",3 (75-99% inhibition)
same,Plant Response Index (A),"Canada Thistle; 4 WAT, 11.2 kg/h",3 (75-99% inhibition)
same,Plant Response Index (D),"Morningglory; Table II, 2 WAT, 5.6 kg/h",2 (50-74% inhibition)
same,Plant Response Index (D),"Morningglory; Table II, 2 WAT, 5.6 kg/h, formulated in anhydrous tetrahydrofuran",2 (50-74% inhibition)
same,Plant Response Index (D),"Morningglory; Table II, 2 WAT, 11.2 kg/h",2 (50-74% inhibition)
same,Plant Response Index (D),"Morningglory; Table II, 2 WAT, 11.2 kg/h, formulated in anhydrous tetrahydrofuran",1 (25-49% inhibition)
same,Plant Response Index (D),"Morningglory; Table II, 4 WAT, 5.6 kg/h",2 (50-74% inhibition)
same,Plant Response Index (D),Morningglory; [1],2 (50-74% inhibition)
same,Plant Response Index (D),"Morningglory; Table II, 4 WAT, 11.2 kg/h",2 (50-74% inhibition)
same,Plant Response Index (D),Morningglory; [2],2 (50-74% inhibition)
same,Plant Response Index (D),"Morningglory; Table III, 2 WAT, 1.1 kg/h",2 (50-74% inhibition)
same,Plant Response Index (D),Morningglory; [3],2 (50-74% inhibition)
same,Plant Response Index (D),"Morningglory; Table III, 2 WAT, 5.6 kg/h",2 (50-74% inhibition)
same,Plant Response Index (D),Morningglory; [4],2 (50-74% inhibition)
same,Plant Response Index (D),"Morningglory; Table III, 2 WAT, .28 kg/h",2 (50-74% inhibition)
same,Plant Response Index (D),Morningglory; [5],1 (25-49% inhibition)
same,Plant Response Index (D),"Morningglory; Table III, 4 WAT, 1.1 kg/h",2 (50-74% inhibition)
same,Plant Response Index (D),Morningglory; [6],2 (50-74% inhibition)
same,Plant Response Index (D),"Morningglory; Table III, 4 WAT, 5.6 kg/h",3 (75-99% inhibition)
same,Plant Response Index (D),Morningglory; [7],3 (75-99% inhibition)
same,Plant Response Index (D),"Morningglory; Table III, 4 WAT, .28 kg/h",1 (25-49% inhibition)
same,Plant Response Index (D),Morningglory; [8],1 (25-49% inhibition)
same,Plant Response Index (I),"Johnsongrass; 2 WAT, 5.6 kg/h",3 (75-99% inhibition)
same,Plant Response Index (I),Johnsongrass; [9],0 (0-24% inhibition)
same,Plant Response Index (I),"Johnsongrass; 2 WAT, 11.2 kg/h",4 (100% inhibition)
same,Plant Response Index (I),Johnsongrass; [10],0 (0-24% inhibition)
same,Plant Response Index (I),"Johnsongrass; 4 WAT, 5.6 kg/h",4 (100% inhibition)
same,Plant Response Index (I),Johnsongrass; [11],2 (50-74% inhibition)
same,Plant Response Index (I),"Johnsongrass; 4 WAT, 11.2 kg/h",4 (100% inhibition)
same,Plant Response Index (I),Johnsongrass; [12],1 (25-49% inhibition)
